As a reminder, the mortality is the share of the test organisms that died. For orientation: LC50 means the concentration lethal to half of the exposed cells or organisms. As usually defined, the LD50 is the dose expected to kill half of the subjects tested.

Here are results for three compounds from patent US8202904B2, “α-cyano-4-fluoro-3-phenoxybenzyl meta-halo pyrethrate, a process for preparing the same and the uses thereof” (East China Normal University, priority 2007, dated 2012).

In brackets after ≈: the same amount, converted by molar mass. Like-named read-outs stand apart in the source and are kept apart here.

For one data set, the system named is Musca domestica. The experiment in a line: Striking down effect on Musca domestica, liquid film contact method. Format: in vivo. On the set-up: unit not given here. Conditions: Musca domestica adults, film from 1 ml of 0.1% liquor in acetone in 500 ml conical flask. As for the experimental part:
The striking down effect on Musca domestica was tested using Compounds 2 and 3, which are representative examples of the compound of formula (I) of the present invention, Compound 9 as a control example. Musca domestica, an in-house cultured sensitive strain, the adult insects in eclosion for 3-5 days were used, and the male and female insects are half and half. Test temperature: 26±1° C., humidity: 70±10%, test method: liquid film contact method. 1 ml of 0.1% liquor in acetone was evenly coated on a 500 ml conical flask to form a film. After the film was dry, 20˜25 adult insects were put into the flask, and the striking down time and striking down number were observed, and each treatment was done in triplicate.

A further data set concerns Blattela germanica. The experiment in a line: Striking down effect on cockroaches, liquid film contact method. Set-up: unit not given here. The data set is classed as in vivo. The conditions noted are these: Blattela germanica male adults, film at 54 mg/m^2, 22±1° C. As for the experimental part: The striking down effect on Blattela germanica was tested using Compound 2 and 3, which are representative examples of the compound of formula (I) of the present invention, Compound 9 as a control example. Blattela germanica, an in-house cultured sensitive strain, male adult insects were used. Test temperature: 22±1° C., test method: liquid film contact method. A liquor in acetone was evenly coated at the amount of 54 mg/m^2 on the inner wall of a wild mouth bottle to form a film. After the film was dry, 10 adult insects were put into each bottle, and the striking down time and striking down number were observed, and each treatment was done in triplicate.

Data set [1] in a line: Stability test, ultraviolet lamp irradiation, gas chromatography analysis. The data set is classed as physicochemical. The conditions noted are these: 30 min, 3 mM. The protocol: 0.15 mmol of the compound of Preparation Example 2 (cis-α-cyano-3-phenoxy-4-fluoro-benzyl-2,2-dimethyl-3-(2-chlorovinyl)cyclopropane carboxylate) and 0.15 mmol of the corresponding dichloride compound (cis-α-cyano-3-phenoxy-4-fluoro-benzyl-2,2-dimethyl-3-(2,2-dichlorovinyl)cyclopropane carboxylate) were added to two vessels separately, to which 50 ml of cyclohexane were added separately. They were irradiated by a 500 W ultraviolet lamp for 30 min respectively. Then to each of the vessels were added 0.15 mmol of n-hexane as an internal standard for gas chromatography analysis. […] The photodegradation rate of the former is 1.9 times of that of the latter. That is to say, if the same amounts were used, the residue of the former in the environment is lower than that of the latter.

Data set [2] concerns Tetrangychus cinnabarinus. The experiment in a line: Killing effect on Tetrangychus cinnabarinus, immersion. The data set is classed as in vivo. The conditions noted are these: after 24 hours. As for the experimental part:
The killing effect on acarids was tested using Compound 2 and 3, which are representative examples of the compound of formula (I) of the present invention, Compound 9 as a control example. Tetrangychus cinnabarinus, test temperature: 26±1° C. humidity: 70±10%; test method: immersion; adult insects together with horsebean leaves were immersed in a liquor in dimethyl sulfoxide for 5 seconds, after which the leaves were inserted into a small bottle. Each treatment was done in triplicate. The number of the killed insects was checked after 24 hours to calculate the mortality.

The next data set deals with Aphis medicaginis kock. As to the kind of experiment: Killing effect on aphids, immersion. The data set is classed as in vivo. As for the experimental part: The killing effect on aphids was tested using Compound 2 and 3, which are representative examples of the compound of formula (I) of the present invention, Compound 9 as a control example. Aphis medicaginis kock; test temperature: 26±1° C., humidity: 70±10%; test method: immersion; adult insects together with bean sprouts were immersed in a liquor in dimethyl sulfoxide for 5 seconds, after which the bean sprouts were heeled in a solid support. Each treatment was done in triplicate. The number of the killed insects was checked after 24 hours to calculate the mortality.

The next data set relates to Mythimna separata. The experiment in a line: Killing effect on Mythimna separata, dipped corn leaves fed to larvae. The data set is classed as in vivo. The protocol: The killing effect on Mythimna separata was tested using Compounds 2 and 3, which are representative examples of the compound of formula (I) of the present invention, Compound 9, polyfluorobenzyl meta-halo pyrethrate, which has the highest insecticidal activity to Mythimna separata as a control example.
Mythimna separata: test temperature: 26±1° C., humidity: 70±10%; the corn leaves was immersed, and then were taken out after they were dipped in a liquor in dimethyl sulfoxide for 5 seconds. The liquor was dried in the shade and the corn leaves were cut away to feed larvae at the beginning of the third instar. Each treatment was done in triplicate. The number of killed insects was counted after 48 hours to calculate the mortality.

The test system of data set [3] is Culex pipiens pallens fourth instar wiggler. The experiment in a line: Killing effect on wiggler, WHO immersing method, LC50. The data set is classed as in vivo. Conditions: for Relative toxicity: from wiggler LC50, Cypermethrin = 100. As for the experimental part:
The following pyrethrates were tested as representatives according to the method recommended by the World Health Organization (WHO) (Zongbing ZHANG, the assay of toxicity of insecticides, the Science Press, 1988), the commonly used testing breed, Culex pipiens pallens fourth instar wiggler is used as a subject for biological assay, test temperature: 26±1° C., humidity: 70±10%; immersing method: a solution of a certain amount the compound to be tested in acetone was mixed evenly with pure water in the gradually decreasing concentration of 500, 250, 100, 50, 25, 12.5, 6.25, 3.125, 1, 0.5, 0.25, 0.1, 0.05, 0.025, 0.01, 0.005, 0.0025, 0.0001 mg/L, and the mortality of wiggler after 24 hours was calculated and LC50 was calculated to preliminarily evaluate the insecticidal activity. The results were shown in Table I. Compound 1-5 are representative examples of the compound of formula (I) of the present invention: the compounds involved in preparation Example 1-5 were prepared;
At the same time, their relative toxicities were compared with those of Cypermethrin, and Deltamethrin.

Data set [4] in a line: Acute toxicity on rats by oral administration. Conditions: rat, in vivo.
The mark [5] stands for this setting: Aphis medicaginis, 24 h, read-out: The average mortality.
[6] abbreviates: 48 h, read-out: The average mortality.

`CC1(C)[C@H](C=CCl)[C@@H]1C(=O)OC(C#N)c1ccc(F)c(Oc2ccccc2)c1` (relative stereo) [Compound 2, cis-α-cyano-3-phenoxy-4-fluoro-benzyl-2,2-dimethyl-3-(2-chlorovinyl)cyclopropane carboxylate] returned a KT50 in the data set on Musca domestica of 3.49. In the data set with Blattela germanica, this compound gave a KT50 of 5.12. Also, in data set [1], the degraded by light is 30% and the “photodegradation rate relative to the corresponding dichloride compound” value was 1.9 times. In data set [2] (1 mg/L), this compound had a The average mortality of 0%. In addition, the The average mortality in data set [2] (5 mg/L) is 11.9%. The The average mortality in data set [2] (50 mg/L) is 91.1%. Besides, the The average mortality in data set [2] (500 mg/L) came out at 100%. For the same compound, in the data set with Aphis medicaginis kock (setting [5]), the mortality at 0.25 ppm was 0%, the mortality at 0.5 ppm worked out at 28.8%, the mortality at 1 ppm was 84.3% and the mortality at 5 ppm turned out to be 89.5%. In addition, in the data set with Aphis medicaginis kock (setting [5]), the mortality at 50 ppm was found to be 100% and the mortality at 500 ppm was found to be 100%. In the data set with Mythimna separata (setting [6]), the mortality at 0.25 ppm amounted to 0%, the mortality at 0.5 ppm is 33.3%, the mortality at 1 ppm is 66.7% and the mortality at 5 ppm was 100%. Besides, in the data set with Mythimna separata (setting [6]), the mortality at 50 ppm was 100% and the mortality at 500 ppm is 100%. In data set [3] (Culex pipiens pallen larvae), the “relative toxicity versus cypermethrin” value came to 22.55 times, the “relative toxicity versus deltamethrin” value is given as 2.55 times and the “relative toxicity versus the compounds in comparative examples 1-6” value was 125-1128 times. In data set [3] (Culex pipiens, 24 h), this compound displayed an LC50 of 0.47 ng/mL (≈ 0.00118 µM). Further, the “relative toxicity versus deltamethrin, estimated for the single chiral isomer” value in data set [3] (extrapolated 4*2.55 from the racemate of four chiral isomers) is given as 10 times. The same compound registered a Relative toxicity in data set [3] of 2255. In data set [4] (female), the LD50 was 158 mg/kg. The same compound gave an LD50 in data set [4] (male) of 116 mg/kg.
On to `CC1(C)[C@@H](C=CCl)[C@@H]1C(=O)OCc1c(F)c(F)cc(F)c1F` (relative stereo) [Compound 9, trans-2,3,5,6-tetrafluoro-4-benzyl-3-(2-chlorovinyl)-2,2-dimethylcyclopropane carboxylat, reference compound], for which the figures for the KT50 in the data set with Musca domestica and in the data set on Blattela germanica were 9.51 and 12.0, respectively. Moreover, the The average mortality in data set [2] (1 mg/L) came out at 0%; in data set [2] (5 mg/L) it was 0%; in data set [2] (50 mg/L), 0%; in data set [2] (500 mg/L), 0%; in the data set with Aphis medicaginis kock (aphids, 0.5 ppm, after 24 hours) it was 0%; with Aphis medicaginis kock (aphids, 1 ppm, after 24 hours), 0%. In addition, the The average mortality in the data set on Aphis medicaginis kock (aphids, 5 ppm, after 24 hours) came out at 0%; in the data set with Aphis medicaginis kock (aphids, 50 ppm, after 24 hours), 18.8%; in the data set with Aphis medicaginis kock (aphids, 500 ppm, after 24 hours), 100%; in the data set with Mythimna separata (0.5 ppm, after 48 hours) it was 0%; in the data set on Mythimna separata (1 ppm, after 48 hours), 0%; with Mythimna separata (5 ppm, after 48 hours) it was 0%. The The average mortality turned out to be 100% in the data set with Mythimna separata (50 ppm, after 48 hours) and 100% with Mythimna separata (500 ppm, after 48 hours). Moreover, the 50% lethal concentration (LC50) in data set [3] (Culex pipiens pallens fourth instar wiggler, immersing method, mortality after 24 hours, 26±1° C.) was 249.2 ng/mL (≈ 0.74 µM). The compound also yielded a Relative toxicity in data set [3] of 4.
Consider `CC1(C)[C@@H](C=CCl)[C@@H]1C(=O)OC(C#N)c1ccc(F)c(Oc2ccccc2)c1` (relative stereo) [Compound 3, Trans-α-cyano-3-phenoxy-4-fluoro-benzyl-2,2-dimethyl-3-(2-chlorovinyl)cyclopropane carboxylate], for which the values for the KT50 with Musca domestica and with Blattela germanica were 5.80 and 8.14, respectively. Besides, the The average mortality is on record as 0% in data set [2] (1 mg/L), 0% in data set [2] (5 mg/L), 7.8% in data set [2] (50 mg/L) and 100% in data set [2] (500 mg/L). The mortality at 0.5 ppm in the data set with Aphis medicaginis kock (Aphis medicaginis, aphids, 0.5 ppm, after 24 hours, read-out: The average mortality) came to 0%; in the data set on Mythimna separata (0.5 ppm, after 48 hours, read-out: The average mortality), 0%. Moreover, the mortality at 1 ppm in the data set with Aphis medicaginis kock (Aphis medicaginis, aphids, 1 ppm, after 24 hours, read-out: The average mortality) came out at 66.3%; with Mythimna separata (1 ppm, after 48 hours, read-out: The average mortality) it was 0%. Besides, the mortality at 5 ppm with Aphis medicaginis kock (Aphis medicaginis, aphids, 5 ppm, after 24 hours, read-out: The average mortality) amounted to 83.7%; in the data set on Mythimna separata (5 ppm, after 48 hours, read-out: The average mortality), 100%. In addition, the mortality at 50 ppm in the data set on Aphis medicaginis kock (Aphis medicaginis, aphids, 50 ppm, after 24 hours, read-out: The average mortality) turned out to be 100%; with Mythimna separata (50 ppm, after 48 hours, read-out: The average mortality), 100%. The mortality at 500 ppm in the data set with Aphis medicaginis kock (Aphis medicaginis, aphids, 500 ppm, after 24 hours, read-out: The average mortality) came to 100%; with Mythimna separata (500 ppm, after 48 hours, read-out: The average mortality), 100%. For the same compound, the LC50 in data set [3] (Culex pipiens pallens fourth instar wiggler, immersing method, mortality after 24 hours, 26±1° C., read-out: LC50) was found to be 5.5 ng/mL (≈ 0.0138 µM). Also, the Relative toxicity in data set [3] is 193.
